Experiments:
alpha-glucosidase = test: Kinetics of alpha-glucosidase inhibition (Lineweaver-Burk plot); type: biochemical, Saccharomyces cerevisiae; conditions: Lineweaver-Burk plots, two inhibitor concentrations, various PNPG concentrations
Method: To determine the mode of inhibition of the compounds, fixed amounts of alpha-glucosidase were incubated with increasing concentrations of PNPG at 37 °C for 15 min, both in the absence and presence of inhibitors. Subsequently, the reactions were stopped, the sample absorbances were measured, and then the values obtained were analyzed using the Lineweaver–Burk plot. For this assay, three evaluations were performed, one in the absence of the inhibitor and the other using different concentrations of the inhibitors (at concentrations equivalent to their respective IC50 values). Again, the evaluations of each compound were performed in triplicate.

alpha-glucosidase enzyme = test: Inhibition of alpha-glucosidase assay (PNPG substrate, 96-well plate); type: biochemical; conditions: enzyme from Saccharomyces cerevisiae
Method: The assay was performed in 96-well plates. Both test samples and the positive control were dissolved in DMSO or MeOH. Test samples (20 μL) were added to their respective wells containing 150 μL of the enzyme (from Saccharomyces cerevisiae purchased from Sigma-Aldrich Co., St. Louis, MO, USA) solution (32 mU/mL), followed by incubation at 37 °C for 7 min. Subsequently, 150 μL of PNPG (4-Nitrophenyl-[…]-D-glucopyranoside, 2 mM) was introduced into each well, and the plate was further incubated at 37 °C for 20 min. The resulting absorbance, corresponding to the p-nitrophenol released during the reaction, was measured at 400 nm. All assays were performed in duplicate. The activity of the samples was calculated as a percentage relative to the control (DMSO or MeOH, instead of the sample solution), using the following equation: %Inhibition=(∆ Acontrol−∆ Asample)/∆ Acontrol×100%
ΔAcontrol: absorbance of the control—absorbance of the blank
ΔAsample: absorbance of the sample—absorbance of the sample blank.
The concentration necessary to achieve a 50% inhibition of enzyme activity (IC50) was calculated through regression analysis. Data obtained from alpha-glucosidase inhibition assays were expressed as the mean ± standard deviation (SD) of three replicates. Statistical analysis was performed using Excel 2019 (Microsoft, Seattle, WA, USA). Finally, a one-way analysis of variance (ANOVA) followed by Tukey’s post-test was used to evaluate possible differences between the means of each data. To determine significant differences, statistical significance was defined as p-values ≤ 0.05 [25].

Structure (SMILES) | mode of inhibition of alpha-glucosidase (alpha-glucosidase) | IC50 (alpha-glucosidase enzyme)
C=C(C)[C@@H]1CC[C@]2(C)CC[C@]3(C)[C@H](CC[C@@H]4[C@@]5(C)CCC(=O)C(C)(C)[C@@H]5CC[C@]43C)[C@@H]12 [Compound 1, lupenone] | reversible competitive inhibition | 720 nM
C=C(C)[C@@H]1CC[C@]2(C)CC[C@]3(C)[C@H](CC[C@@H]4[C@@]5(C)CC[C@H](O)C(C)(C)[C@@H]5CC[C@]43C)[C@@H]12 [Compound 2, lupeol] |  | 1050 nM
C[C@H]1[C@H](C)CC[C@]2(C)CC[C@]3(C)C(=CC[C@@H]4[C@@]5(C)CC[C@H](O)C(C)(C)[C@@H]5CC[C@]43C)[C@H]12 [Compound 3, α-amyrin] |  | 2130 nM
CC1(C)CC[C@]2(C)CC[C@]3(C)C(=CC[C@@H]4[C@@]5(C)CC[C@H](O)C(C)(C)[C@@H]5CC[C@]43C)[C@@H]2C1 [Compound 4, β-amyrin] |  | 1220 nM
CCCCCCCCCCCCCCCC(=O)O [Compound 5, palmitic acid] |  | 240000 nM
CC[C@H](CC[C@@H](C)[C@H]1CC[C@H]2[C@@H]3CC=C4C[C@@H](O)CC[C@]4(C)[C@H]3CC[C@]12C)C(C)C [Compound 6, sitosterol] | reversible competitive inhibition | 18700 nM
CC[C@H](/C=C/[C@@H](C)[C@H]1CC[C@H]2[C@@H]3CC=C4C[C@@H](O)CC[C@]4(C)[C@H]3CC[C@]12C)C(C)C [Compound 7, stigmasterol] | reversible competitive inhibition | 163000 nM
C[C@H]1O[C@H](O[C@H]2[C@H](O)[C@@H](O)[C@@H](O[C@H]3[C@H](O)[C@@H](O)C(O)O[C@@H]3CO)O[C@@H]2CO)[C@H](O)[C@@H](O)[C@@H]1N[C@H]1C=C(CO)[C@@H](O)[C@H](O)[C@H]1O (some centres unmarked) [acarbose, reference compound] | competitive inhibition | 
